# Measured values as given in patent US20130109616A1, “ANTIMICROBIAL PEPTIDES” (priority 2010, published 2013).
# “Also recorded” adds a separate entry of the source.
# Legend:
# Vaccinia virus = format: cell-based
# [1] = tested on: Burkholderia cepacia J2540; format: cell-based
# [2] = tested on: B. anthracis UM23-CI2 vegetative cells; format: cell-based, Bacillus anthracis
# [3] = tested on: B. anthracis UM23-CI2 spores; format: cell-based, Bacillus anthracis
# E. coli = assay: Modified microtitre broth dilution, IC50/IC90; format: cell-based, Escherichia coli; parameters: unit not given here
# [4] = tested on: Candida albicans (SC5314); assay: Serial dilution growth/killing assay; format: cell-based; settings: serial dilutions, 14 hours at 30° C., FIG. 6; peptides C-terminally amidated
# [5] = tested on: Staphylococcus aureus (NC131142); assay: Serial dilution growth/killing assay; format: cell-based; settings: peptides C-terminally amidated
# [6] = tested on: subtilisin or V8 protease; assay: Protease resistance: membrane-binding ELISA after protease pre-incubation; settings: subtilisin and/or V8 protease, 30 minutes at room temperature, FIG. 1
# [7] = tested on: Bacillus subtilis membranes; assay: Membrane-binding ELISA; settings: expressed peptide fused to 3×FLAG-10×His, no protease
Substance,anti-viral activity against Vaccinia virus compared with LL-37 (Vaccinia virus),activity against B. cepacia at 24 hours [1],reduction of the starting culture of B. cepacia [1],"change in cell number, exponential phase cells [2]","duration of antibacterial activity, vegetative cells [2]",bactericidal activity against Bacillus anthracis spores (in words) [3],"duration of antibacterial activity, spores [3]",IC50 (E. coli),IC90 (E. coli),killing of C. albicans compared with MAF-23 peptides [4],"colonies recovered, S. aureus ([5]; 25 nM peptide)","killing of S. aureus compared with MAF-23 peptides ([5]; serial dilutions, 14 hours at 30° C., FIG. 5)",effect on growth of B. cepacia [1],activity against Bacillus anthracis vegetative cells (in words) [2],ELISA binding signal after protease treatment (proteolytic resistance) [6],binding to immobilised Bacillus subtilis membranes (ELISA signal) [7]
FKRIVQRIKDFLRKLVPRIMS [Peptide H04],"greater anti-viral activity than the wild-type peptide, LL-37",no bacteria were detectable; also recorded: effective killing activity over the entire duration of the 24-hour testing period,99.9%,further reductions in cell number,still effective at the end of the 24-hour period,improved bactericidal activity,still effective at the end of the 24-hour period,7.8-15.6,15.6-31.3,,,,,,,
"FRRIVQRIKDFLRNLVMRRKN [Peptide F11, FRRIVQRIKDFLRNLV MRRKN]","greater anti-viral activity than the wild-type peptide, LL-37",effective killing activity over the entire duration of the 24-hour testing period,~99%,further reductions in cell number,still effective at the end of the 24-hour period,improved bactericidal activity,still effective at the end of the 24-hour period,7.8-15.6,7.8-15.6,killed C. albicans more effectively than the wild type peptides MAF23 and acetylated MAF23,approximately 10^3 colonies/ml,killed S. aureus more effectively than the MA23 or N-terminally acetylated MA23,,,,
"LLGDFFRKSKEKIGKEFKRIVQRIKDFLRNLVPRTES [LL-37, reference compound]",,,,,,better activity than MA-22,activity was lost within the 24 hour period,15.6-31.3,15.6-31.3,,,,no effect on the growth,did not have activity,,
LLGVFFRKRKAKIGKKFKRILQRIKDFRRNLVPRIKS [Peptide C11],,,,,,improved bactericidal activity,,15.6-31.3,31.3-62.5,,,,prevent B. cepacia from growing,,,
VKRIVQRIKVFLRNLMPRSKS [Peptide G11],,,,,,improved bactericidal activity,,31.3-62.5,62.5-125,,,,prevent B. cepacia from growing,,increase signal strength,
wild-type full length LL-37 peptide fused to 3×FLAG-10×His [reference compound],,,,,,,,,,,,,,,abolished the signal,significant binding
